Series [1] deals with T1, hNaV1.6 (Homo sapiens, UniProt Q9UQD0).
T1 construct: expressed in transfected cells
Nature of the series: Automated patch-clamp and photoactivation, hNaV1.6 current in HEK293 cells. In kind it is cell-based. (In patch-clamp work, channel activity is measured electrically.)

Series [2] has as its target T2, hNaV1.2 (Homo sapiens, UniProt Q99250).
T2 construct: expressed in transfected cells
Nature of the series: Automated patch-clamp and photoactivation, hNaV1.2 current in HEK293 cells. In kind it is cell-based. The conditions noted are these: 1 nM, 365 nm, 45 mW/cm^2.

In series [3] the test system is zebrafish larvae. The series can be described thus: Zebrafish larvae paralysis model. The conditions noted are these: injected, then illumination. The format is in vivo.
Series [4] has as its target shaker (Drosophila melanogaster, UniProt P08510). The following applies: cited from earlier work.
For series [5], the target named is Kv1.5/KCNA5 (Homo sapiens, UniProt P22460). The following applies: cited from earlier work.
Series [6] concerns the target Kv1.6/KCNA6 (Homo sapiens, UniProt P17658). The conditions noted are these: cited from earlier work.
The target in series [7] is Kv1.3/KCNA3 (Homo sapiens, UniProt P22001). The conditions noted are these: cited from earlier work.
Series [8] addresses KCa1.1/KCNMA1 (Homo sapiens, UniProt Q12791). The following applies: cited from earlier work.
In series [9] the test system is nicotinic acetylcholine receptors (nAChR). The following applies: cited from earlier work.
Series [10] deals with Kv1.2/KCNA2 (Homo sapiens, UniProt P16389). The conditions noted are these: cited from earlier work.
The target in series [11] is T3, KV1.2 (Homo sapiens, UniProt P16389).
T3 construct: expressed in transfected cells; host or cells: CHO (transient)
Nature of the series: Automated patch-clamp with photocontrol, KV1.2 current in CHO cells. The format is cell-based. The conditions noted are these: 100 nM; 365 nm, 45 mW/cm^2.

Series [12] deals with hERG (Homo sapiens, UniProt Q12809). Nature of the series: Automated patch-clamp with photocontrol, hERG current in CHO cells. The conditions noted are these: 100 nM; 365 nm, 45 mW/cm^2.
Series [13] deals with human NaV1.2 channel (human) (UniProt Q99250). Nature of the series: cell-based or functional assay.
Series [14] addresses human NaV1.6 channel (human) (UniProt Q9UQD0). The series can be described thus: cell-based or functional assay.
For series [15], the target named is human NaV1.1 channel (human) (UniProt P35498). Nature of the series: cell-based or functional assay.

Consider six compounds from patent US20240409594A1, “PHOTOA[…] CHANNEL MODULATOR” (INSTITUT NATIONAL DE LA SANTÉ ET DE LA RECHERCHE MÉDICALE, priority 2021, published 2024).

T1 sequence (Q9UQD0 whole entry): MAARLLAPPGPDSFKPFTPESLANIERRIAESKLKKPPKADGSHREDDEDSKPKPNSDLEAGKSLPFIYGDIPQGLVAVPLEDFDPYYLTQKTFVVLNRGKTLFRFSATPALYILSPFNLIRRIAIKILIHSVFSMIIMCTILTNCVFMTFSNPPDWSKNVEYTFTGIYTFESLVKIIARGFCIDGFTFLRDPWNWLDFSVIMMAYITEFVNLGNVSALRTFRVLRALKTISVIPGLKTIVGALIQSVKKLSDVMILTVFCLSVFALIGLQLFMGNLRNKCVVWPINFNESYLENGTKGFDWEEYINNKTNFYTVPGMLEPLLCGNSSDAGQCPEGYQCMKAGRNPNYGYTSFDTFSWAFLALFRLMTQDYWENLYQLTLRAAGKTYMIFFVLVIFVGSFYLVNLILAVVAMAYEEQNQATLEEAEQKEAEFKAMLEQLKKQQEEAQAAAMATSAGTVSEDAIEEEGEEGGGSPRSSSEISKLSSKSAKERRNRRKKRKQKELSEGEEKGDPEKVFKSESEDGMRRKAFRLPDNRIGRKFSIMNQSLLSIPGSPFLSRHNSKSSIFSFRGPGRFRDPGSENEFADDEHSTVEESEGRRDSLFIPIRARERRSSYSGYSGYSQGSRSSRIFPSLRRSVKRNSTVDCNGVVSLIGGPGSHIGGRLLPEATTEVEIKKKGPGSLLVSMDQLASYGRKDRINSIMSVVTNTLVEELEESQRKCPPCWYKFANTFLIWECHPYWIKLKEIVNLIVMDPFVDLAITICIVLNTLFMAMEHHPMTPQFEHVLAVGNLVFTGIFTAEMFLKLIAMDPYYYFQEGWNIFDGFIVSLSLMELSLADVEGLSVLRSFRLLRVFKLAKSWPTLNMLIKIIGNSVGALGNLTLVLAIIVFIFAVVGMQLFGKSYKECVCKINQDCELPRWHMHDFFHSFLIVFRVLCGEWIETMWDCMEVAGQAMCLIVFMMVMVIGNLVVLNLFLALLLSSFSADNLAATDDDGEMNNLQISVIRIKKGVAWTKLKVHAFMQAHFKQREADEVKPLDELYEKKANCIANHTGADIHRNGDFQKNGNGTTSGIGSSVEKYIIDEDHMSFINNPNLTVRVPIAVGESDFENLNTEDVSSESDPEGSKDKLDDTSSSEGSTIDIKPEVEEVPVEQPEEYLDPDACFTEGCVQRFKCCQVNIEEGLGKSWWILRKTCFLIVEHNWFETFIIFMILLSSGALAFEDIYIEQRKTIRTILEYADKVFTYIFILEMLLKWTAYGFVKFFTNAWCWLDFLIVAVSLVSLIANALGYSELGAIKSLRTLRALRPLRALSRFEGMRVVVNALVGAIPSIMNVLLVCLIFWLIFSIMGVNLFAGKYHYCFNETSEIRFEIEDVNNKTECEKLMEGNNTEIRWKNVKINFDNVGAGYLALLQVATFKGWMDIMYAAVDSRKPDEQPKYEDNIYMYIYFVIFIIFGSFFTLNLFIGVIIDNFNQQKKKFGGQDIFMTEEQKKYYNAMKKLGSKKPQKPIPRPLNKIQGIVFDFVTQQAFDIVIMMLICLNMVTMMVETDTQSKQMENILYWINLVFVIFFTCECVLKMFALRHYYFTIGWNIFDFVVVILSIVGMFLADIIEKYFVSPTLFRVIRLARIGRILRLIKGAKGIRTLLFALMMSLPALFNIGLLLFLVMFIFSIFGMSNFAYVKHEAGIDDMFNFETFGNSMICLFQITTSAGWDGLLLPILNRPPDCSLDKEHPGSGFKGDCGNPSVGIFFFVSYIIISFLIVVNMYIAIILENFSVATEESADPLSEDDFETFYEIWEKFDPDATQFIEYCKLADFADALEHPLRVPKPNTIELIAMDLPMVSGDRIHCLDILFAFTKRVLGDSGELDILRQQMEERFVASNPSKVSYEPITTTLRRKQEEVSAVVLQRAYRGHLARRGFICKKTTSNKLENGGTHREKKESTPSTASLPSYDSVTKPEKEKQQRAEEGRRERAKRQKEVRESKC
T2 sequence (Q99250 whole entry): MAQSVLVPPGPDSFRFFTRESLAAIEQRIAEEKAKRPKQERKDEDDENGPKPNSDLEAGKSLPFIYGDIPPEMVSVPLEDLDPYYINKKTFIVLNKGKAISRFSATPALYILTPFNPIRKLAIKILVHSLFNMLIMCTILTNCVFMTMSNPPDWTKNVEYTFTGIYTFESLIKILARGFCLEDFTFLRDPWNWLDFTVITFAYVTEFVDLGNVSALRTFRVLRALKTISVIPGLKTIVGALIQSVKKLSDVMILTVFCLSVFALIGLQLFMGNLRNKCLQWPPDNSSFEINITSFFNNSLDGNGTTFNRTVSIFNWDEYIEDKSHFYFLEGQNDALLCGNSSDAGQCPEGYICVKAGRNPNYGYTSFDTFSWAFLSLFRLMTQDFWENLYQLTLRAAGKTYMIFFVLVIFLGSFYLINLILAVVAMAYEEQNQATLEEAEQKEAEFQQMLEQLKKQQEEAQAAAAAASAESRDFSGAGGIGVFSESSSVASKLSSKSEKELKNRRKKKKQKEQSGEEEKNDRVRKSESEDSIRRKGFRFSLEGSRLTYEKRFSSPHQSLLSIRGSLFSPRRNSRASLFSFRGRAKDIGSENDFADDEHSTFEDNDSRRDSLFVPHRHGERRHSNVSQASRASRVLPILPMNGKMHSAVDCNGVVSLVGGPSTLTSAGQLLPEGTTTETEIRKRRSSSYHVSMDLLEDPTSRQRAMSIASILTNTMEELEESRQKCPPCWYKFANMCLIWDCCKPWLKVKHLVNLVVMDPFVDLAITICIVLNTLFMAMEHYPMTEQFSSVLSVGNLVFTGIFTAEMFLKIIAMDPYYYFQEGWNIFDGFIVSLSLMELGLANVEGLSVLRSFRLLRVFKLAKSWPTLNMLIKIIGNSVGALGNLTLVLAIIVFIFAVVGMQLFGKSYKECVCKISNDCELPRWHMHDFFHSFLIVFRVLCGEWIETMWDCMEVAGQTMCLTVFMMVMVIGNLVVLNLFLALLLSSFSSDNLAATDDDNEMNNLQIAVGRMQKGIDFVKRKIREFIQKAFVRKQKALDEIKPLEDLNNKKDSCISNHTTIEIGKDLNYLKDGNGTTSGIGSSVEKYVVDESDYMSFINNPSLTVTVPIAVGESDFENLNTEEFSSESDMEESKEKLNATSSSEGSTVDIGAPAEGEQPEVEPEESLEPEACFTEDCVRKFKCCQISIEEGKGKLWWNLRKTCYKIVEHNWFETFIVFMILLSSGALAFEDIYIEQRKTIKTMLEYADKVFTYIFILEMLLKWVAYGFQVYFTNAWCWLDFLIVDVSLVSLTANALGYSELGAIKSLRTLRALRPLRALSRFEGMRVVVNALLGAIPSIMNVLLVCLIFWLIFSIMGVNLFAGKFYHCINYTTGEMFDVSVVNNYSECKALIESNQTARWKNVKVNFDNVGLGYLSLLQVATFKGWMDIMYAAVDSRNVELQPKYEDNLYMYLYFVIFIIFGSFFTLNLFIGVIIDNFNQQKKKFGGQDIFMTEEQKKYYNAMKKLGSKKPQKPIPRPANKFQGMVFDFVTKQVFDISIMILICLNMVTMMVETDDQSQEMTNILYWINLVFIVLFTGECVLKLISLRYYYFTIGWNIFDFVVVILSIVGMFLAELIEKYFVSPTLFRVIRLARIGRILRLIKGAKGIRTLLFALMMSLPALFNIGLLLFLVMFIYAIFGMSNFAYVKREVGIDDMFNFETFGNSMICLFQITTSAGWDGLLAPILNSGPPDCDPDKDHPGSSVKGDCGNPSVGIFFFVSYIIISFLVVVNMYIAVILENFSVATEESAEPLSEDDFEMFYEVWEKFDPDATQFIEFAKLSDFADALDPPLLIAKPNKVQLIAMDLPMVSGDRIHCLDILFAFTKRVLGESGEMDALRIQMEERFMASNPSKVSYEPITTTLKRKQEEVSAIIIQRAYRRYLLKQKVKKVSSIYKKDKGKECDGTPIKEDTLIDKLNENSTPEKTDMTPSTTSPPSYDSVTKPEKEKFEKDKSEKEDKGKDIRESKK
Sequence of human NaV1.6 channel (human) (Q9UQD0 whole entry): as the sequence (Q9UQD0 whole entry) above
Sequence of human NaV1.2 channel (human) (Q99250 whole entry): as the sequence (Q99250 whole entry) above
Sequence of Kv1.3/KCNA3 (P22001 whole entry): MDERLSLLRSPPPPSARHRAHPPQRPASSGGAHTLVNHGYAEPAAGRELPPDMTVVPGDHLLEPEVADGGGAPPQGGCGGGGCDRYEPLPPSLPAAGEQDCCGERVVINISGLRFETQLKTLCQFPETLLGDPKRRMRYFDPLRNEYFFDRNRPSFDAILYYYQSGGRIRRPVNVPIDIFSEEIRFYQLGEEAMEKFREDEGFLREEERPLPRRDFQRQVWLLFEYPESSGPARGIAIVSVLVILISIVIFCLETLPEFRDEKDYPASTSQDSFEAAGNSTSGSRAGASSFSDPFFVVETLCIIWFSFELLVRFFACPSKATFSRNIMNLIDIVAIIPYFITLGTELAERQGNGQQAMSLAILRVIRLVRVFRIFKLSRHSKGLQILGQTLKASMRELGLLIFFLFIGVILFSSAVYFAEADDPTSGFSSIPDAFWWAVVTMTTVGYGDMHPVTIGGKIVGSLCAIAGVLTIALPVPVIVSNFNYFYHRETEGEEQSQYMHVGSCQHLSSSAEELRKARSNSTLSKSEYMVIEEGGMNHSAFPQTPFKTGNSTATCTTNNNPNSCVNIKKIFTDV
Sequence of Kv1.2/KCNA2 (P16389 whole entry): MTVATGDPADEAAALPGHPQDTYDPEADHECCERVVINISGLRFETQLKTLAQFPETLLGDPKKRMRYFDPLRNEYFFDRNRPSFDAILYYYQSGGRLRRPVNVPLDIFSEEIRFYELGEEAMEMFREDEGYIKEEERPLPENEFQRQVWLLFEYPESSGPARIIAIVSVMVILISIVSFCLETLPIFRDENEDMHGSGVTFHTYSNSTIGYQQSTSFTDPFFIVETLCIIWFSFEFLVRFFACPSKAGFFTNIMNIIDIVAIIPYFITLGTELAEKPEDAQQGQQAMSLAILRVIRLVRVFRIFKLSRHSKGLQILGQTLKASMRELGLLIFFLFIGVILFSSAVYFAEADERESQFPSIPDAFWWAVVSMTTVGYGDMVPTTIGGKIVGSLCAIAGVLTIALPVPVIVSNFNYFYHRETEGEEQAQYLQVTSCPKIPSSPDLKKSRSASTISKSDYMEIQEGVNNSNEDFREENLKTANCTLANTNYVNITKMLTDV

Take `CC[C@H](C)[C@@H]1NC(=O)CNC(=O)[C@H](CC(C)C)NC(=O)[C@@H](NC(=O)CN)CSSC[C@@H]2NC(=O)[C@@H]3CSSC[C@@H](C(=O)N[C@@H](CCCCN)C(=O)N[C@@H](Cc4ccc(O)cc4)C(=O)N[C@@H](CCC(N)=O)C(=O)N[C@H](C(=O)N[C@@H](CCCCN)C(N)=O)[C@@H](C)CC)NC(=O)[C@H](Cc4c[nH]c5ccccc45)NC(=O)[C@H](CCCNC(=N)N)NC(=O)[C@H]([C@@H](C)O)NC(=O)[C@H](CCCCN)NC(=O)[C@H](CCCNC(=N)N)NC(=O)[C@H](CO)NC(=O)[C@H](CSSC[C@H](NC(=O)[C@H](C)NC(=O)[C@H](CCCCN)NC(=O)[C@H](Cc4ccccc4)NC1=O)C(=O)N[C@@H](CC(N)=O)C(=O)N1CCC[C@H]1C(=O)N[C@@H](CO)C(=O)N[C@@H](CC(N)=O)C(=O)N[C@@H](CC(=O)O)C(=O)N[C@@H](CCC(N)=O)C(=O)N3)NC(=O)[C@H](C(C)C)NC(=O)[C@H](CC(C)C)NC(=O)[C@H](CCCCN)NC(=O)[C@H](CO)NC(=O)[C@H](CO)NC(=O)[C@H](CCCCN)NC2=O` [uncaged HwTxIV-Nvoc]: in series [1] (FIG. 2a / FIG. 3f series, caged vs non-caged vs uncaged, holding −100 mV, read-out: IC50 NaV1.6 current inhibition), the IC50 came out at 15.2 nM.
As to “AaHII-R^62K-Nvoc: Nvoc-grafted analogue of AaHII wherein Arg62 was replaced by Lys62”, the “UV-dependent effect on hNaV1.2 current after uncaging” value in series [2] was “slowing of inactivation”; in [2] (listed as AaHIIR^62K-Nvoc), “activation”. Also, the “Paralysis of zebrafish larvae after illumination” value in series [3] is on record as “paralysis in all larvaes”.
For the compound “QFTNVSCTTSKECWSVCQRLHNTSRGKCMNKKCRCYS [Charybdotoxin]”, the Ki was 227 nM in [4] and 22 nM in [6]. In series [5], the dissociation constant (Kd) is above 100 nM. Also, the “Inhibition of Kv1.3/KCNA3” value in series [7] is “nanomolar range”. The IC50 in series [8] was 5.9 nM. Also, in series [9], the “Interaction with nicotinic acetylcholine receptors” value was “weak interaction”. Besides, in [10], the “Inhibition of Kv1.2/KCNA2” value is “nanomolar range”.
In the case of charybdotoxin-Nvoc, the “UV-dependent effect on KV1.2 current after uncaging” value in series [11] is listed as “block”.
Turning to “BeKm1-Nvoc: BeKm1 (hERG blocker) caged with a Nvoc protecting group (RPTDIKCSESYQCFPVCKSRFGKTNGRCVNGFCDCF)”, the “UV-dependent effect on hERG current after uncaging” value in series [12] is recorded as “block”. Further, the “Effect of Nvoc photolysis by-product on NaV1.6” value in series [1] (by-product from uncaging 100 nM, negative control) is on record as “inert”.
As to “HwTxIV analog (HwTxIVG^1G^4K^36) (peptide)”, the IC50 of hNaV1.2 current inhibition in [13] turned out to be 3.23 nM. This compound also yielded an IC50 of NaV1.6 current inhibition in series [14] of 22.4 nM. Besides, the IC50 of hNaV1.1 current inhibition in [15] came out at 3.6 nM.

What is called IC50 is the midpoint of a concentration-inhibition curve. What is called Ki is a measure of affinity in units of concentration, obtained from inhibition or displacement. A word on the Kd: it is the concentration at which binding is half-saturated.
